Tests used:
[1] = in words; Veal et al., 1995; cited from earlier work
[2] = target: T1, S9 fraction of human liver (Homo sapiens, UniProt Q06278); assay: AMT formation from AZT by human liver S9 fraction / human liver samples; format: in vitro ADME; details: human liver samples; conversion of AZT to AMT
T1 construct: Human liver samples stored at -70° C. were partially thawed, homogenized; from tissue; host or cells: human liver, S9 fraction (9000 g supernatant)
T1 sequence (Q06278 1-1338): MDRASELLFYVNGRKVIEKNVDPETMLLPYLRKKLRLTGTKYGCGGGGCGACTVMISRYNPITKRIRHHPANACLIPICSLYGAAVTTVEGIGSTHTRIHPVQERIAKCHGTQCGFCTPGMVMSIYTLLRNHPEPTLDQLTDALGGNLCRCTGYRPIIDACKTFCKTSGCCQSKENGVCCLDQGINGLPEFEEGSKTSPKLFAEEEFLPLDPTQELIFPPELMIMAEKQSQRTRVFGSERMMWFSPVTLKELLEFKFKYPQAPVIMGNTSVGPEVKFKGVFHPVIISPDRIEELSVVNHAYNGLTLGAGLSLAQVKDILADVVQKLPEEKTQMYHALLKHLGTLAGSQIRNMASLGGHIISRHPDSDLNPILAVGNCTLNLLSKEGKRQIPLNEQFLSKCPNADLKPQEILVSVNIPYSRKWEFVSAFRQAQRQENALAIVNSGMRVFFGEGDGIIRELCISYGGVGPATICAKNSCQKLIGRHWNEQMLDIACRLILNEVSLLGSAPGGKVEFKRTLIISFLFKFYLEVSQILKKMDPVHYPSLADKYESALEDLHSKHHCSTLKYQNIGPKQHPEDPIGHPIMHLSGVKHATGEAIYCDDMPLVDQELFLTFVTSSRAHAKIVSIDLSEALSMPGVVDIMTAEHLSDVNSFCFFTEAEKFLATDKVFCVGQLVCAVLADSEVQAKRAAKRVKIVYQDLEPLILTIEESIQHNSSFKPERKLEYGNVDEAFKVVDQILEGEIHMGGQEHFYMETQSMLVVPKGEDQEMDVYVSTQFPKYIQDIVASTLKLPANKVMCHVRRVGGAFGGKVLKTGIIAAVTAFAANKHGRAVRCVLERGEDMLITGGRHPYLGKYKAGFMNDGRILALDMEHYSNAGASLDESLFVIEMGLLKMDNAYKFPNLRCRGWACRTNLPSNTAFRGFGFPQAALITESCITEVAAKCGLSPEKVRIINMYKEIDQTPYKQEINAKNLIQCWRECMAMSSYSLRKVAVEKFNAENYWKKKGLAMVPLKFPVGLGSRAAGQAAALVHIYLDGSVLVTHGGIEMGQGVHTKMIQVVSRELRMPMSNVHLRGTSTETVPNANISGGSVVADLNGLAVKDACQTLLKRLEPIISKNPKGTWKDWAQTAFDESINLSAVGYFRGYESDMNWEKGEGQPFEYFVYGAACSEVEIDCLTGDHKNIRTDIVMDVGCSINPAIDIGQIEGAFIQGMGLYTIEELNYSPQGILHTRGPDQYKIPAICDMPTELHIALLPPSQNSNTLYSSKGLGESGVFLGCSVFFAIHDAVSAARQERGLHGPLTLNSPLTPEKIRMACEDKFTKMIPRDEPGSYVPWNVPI
Excerpt: (§1) Hamster livers were processed by the same method.
(§2) This reduced the experimental variability and simplified the procedure. […] The method was as follows.
(§3) AMT formation by a human liver S9 fraction was compared with that by a hamster liver S9 fraction, as the hamster has the highest documented level of liver aldehyde oxidase activity (Kitamura, 1984; by Sugihara, 1996).

[3] = test system: S9 fraction of human liver; assay: as above; format: in vitro ADME
Excerpt: as §1, §2, §3

[4] = test system: microsomal cytochrome P450 isozymes and microsomal NADPH-cytochrome P450 reductase; details: in words; Eagling (1994); cited from earlier work
[5] = test system: retroviral replication; details: cited from earlier work
[6] = test system: bone marrow; details: cited from earlier work
[7] = test system: bone marrow cells; details: in words; cited from earlier work
[8] = test system: cytosolic fraction of human liver (aldehyde oxidase); format: in vitro ADME
Excerpt: as §1, §2

[9] = test system: microsomal fraction of human liver; format: in vitro ADME
Excerpt: as §1, §2

[10] = test system: S9 fraction of hamster liver; format: in vitro ADME
Excerpt: as §1, §2, §3

[11] = in words; cited from earlier work

## Cc1cn([C@H]2C[C@H](N=[N+]=[N-])[C@@H](CO)O2)c(=O)[nH]c1=O [AZT, 3'-azido-3'-deoxythymidine]
[1]
  pathways of metabolism and elimination: The predominant pathway of metabolism is by glucuronide formation and renal excretion
[2]
  share of AMT formation due to cytosolic aldehyde oxidase (2-OHP-dependent): ≥ 90%
[3]
  share of AMT formation due to microsomal enzyme activity: less than 10%
[4]
  conversion of AZT to AMT by human liver microsomes: the conversion was mediated by both microsomal cytochrome P450 isozymes and microsomal NADPH-cytochrome P450 reductase
[5]
  inhibition of retroviral replication: potent inhibitor of retroviral replication
[6]; depending on dosage and disease stage
  patients treated with AZT suffering bone marrow toxicity: up to 51%
[6]; in words
  side-effect of bone marrow toxicity: bone marrow toxicity, resulting in granulocytopenia and anemia

## Cc1cn([C@H]2C[C@H](N)[C@@H](CO)O2)c(=O)[nH]c1=O [AMT, 3'-amino-3'-deoxythymidine]
[7]
  toxicity to bone marrow cells relative to AZT: more toxic to bone marrow cells than AZT
[2]
  share of AMT formation due to cytosolic aldehyde oxidase (2-OHP-dependent): about 90%
[3]
  Ratio (2-OHP/NADPH) of AMT formation, H.L. (first column): 11
  Ratio (2-OHP/NADPH) of AMT formation, H.L. (second column): 9.5
  share of AMT formation due to microsomal enzyme activity: about 10%
[3]; human, s9, 10 µM, pH 7.5
  AMT formation (% AMT formed/0.05 g liver), H.L. (first column): 1.8 % AMT formed/0.05 g liver
  AMT formation (% AMT formed/0.05 g liver), H.L. (second column): 1.5 % AMT formed/0.05 g liver
[8]
  2-OHP-dependent AMT formation: a higher level of AMT formation, dependent on 2-OHP
  NADPH-dependent AMT formation: no NADPH-dependent AMT formation
[9]
  2-OHP-dependent AMT formation: no 2-OHP-dependent AMT formation
  NADPH-dependent AMT formation: NADPH-dependent AMT formation occurred in the microsomal fraction
[10]
  AMT formation by hamster versus human liver S9: greater activity than the human fraction in the presence of either co-factor
  Ratio (2-OHP/NADPH) of AMT formation, HM: 4.4
[11]
  half-life in the circulation relative to AZT: longer half-life in the circulation

Reference: US6040434A, “Aldehyde oxidase inhibitors for treatment of aids” (priority 1997, dated 2000)
